The source of these data is patent US7208506B2, “Heteroarylethenyl derivatives, their manufacture and use as pharmaceutical agents” (Hoffmann-La Roche Inc., priority 2005, dated 2007).

Structures can show the parent of a compound that is named as a salt.

The assay relates to HCT 116 cells. As to the kind of experiment: CellTiter-Glo Luminescent Cell Viability Assay in HCT 116 cells. It counts as cell-based. Conditions: Homo sapiens, HCT-116, 120 h, HCT 116 human colon carcinoma cell viability, 120 h (5 days) incubation, 10 concentrations 30 μM to 0.0015 μM, triplicate. An excerpt:
CellTiter-Glo™ Assay in HCT 116 Cells
The CellTiter-Glo™ Luminescent Cell Viability Assay (Promega) is a homogeneous method of determining the number of viable cells in culture based on quantitation of the ATP present, which signals the presence of metabolically active cells.
HCT 116 cells (human colon carcinoma, ATCC-No. CCl1-247) were cultivated in RPMI 1640 medium with GlutaMAX™ I (Invitrogen, Cat-No. 61870-010), 2.5% Fetal Calf Serum (FCS, Sigma Cat-No. F4135 (FBS)); 100 Units/ml penicillin/100 μg/ml streptomycin (=Pen/Strep from Invitrogen Cat. No. 15140). For the assay the cells were seeded in 384 well plates, 1000 cells per well, in the same medium. The next day the test compounds were added in various concentrations ranging from 30 μM to 0.0015 μM (10 concentrations, 1:3 diluted). After 5 days the CellTiter-Glo™ assay was done according to the instructions of the manufacturer (CellTiter-Glo™ Luminescent Cell Viability Assay, from Promega). In brief: the cell-plate was equilibrated to room temperature for approximately 30 minutes and than the CellTiter-Glo™ reagent was added. The contents were carefully mixed for 15 minutes to induce cell lysis. After 45 minutes the luminescent signal was measured in Victor 2, (scanning multiwell spectrophotometer, Wallac).
Medium: RPMI 1640 with GlutaMAX™ I (Invitrogen, Cat-Nr. 61870), 5% FCS (Sigma Cat.-No. F4135), Pen/Strep (Invitrogen, Cat No. 15140).
HCT116 (ATCC-No. CCl-247): 1000 cells in 60 μl per well of 384 well plate (Greiner 781098, μClear-plate white)
After seeding incubate plates 24 h at 37° C., 5% CO2
2nd. Day: Induction (Treatment with Compounds, 10 Concentrations):
In order to achieve a final concentration of 30 μM as highest concentration 3,5 μl of 10 mM compound stock solution were added directly to 163 μl media. Then step e) of the dilution procedure described below, was followed.
In order to achieve the second highest to the lowest concentrations, a serial dilution with dilution steps of 1:3 was followed according to the procedure (a–e) as described here below: • a) for the second highest concentration add 10 μl of 10 mM stock solution of compound to 20 μl dimethylsulfoxide (DMSO) • b) dilute 8×1:3 (always 10 μl to 20 μl DMSO) in this DMSO dilution row (results in 9 wells with concentrations from 3333.3 μM to 0.51 μM) • c) dilute each concentration 1: 47.6 (3.5 μl compound dilution to 163 μl media) • e) add 10 μl of every concentration to 60 μl media in the cell plate resulting in final concentration of DMSO : 0.3% in every well and resulting in 10 final concentration of compounds ranging from 30 μM to 0.0015 μM. • Each compound is tested in triplicate. • Incubate 120 h (5 days) at 37° C., 5% CO2
Analysis: • Add 30 μl CellTiter-Glo™ Reagent per well, • shake 15 minutes at room temperature • incubate further 45 minutes at room temperature without shaking
Measurement: • Victor 2 scanning multiwell spectrophotometer (Wallac), Luminescence mode (0.5 sec/read, 477 nm) • Determine IC50 using a non-linear curve fit (XLfit software (ID Business Solution Ltd., Guilford, Surrey, UK))
(Cellular ATP, detected with luciferase, serves as a proxy for viable cell number.)
In general, IC50 refers to the concentration at which inhibition is half-maximal. The low end stands for higher potency, the high end for lower potency. `Cc1cc(Cl)ccc1C(=O)NS(=O)(=O)/C=C/c1ccccn1` [Example 4-2, (E)-2-Pyridin-2-yl-ethenesulfonic acid 4-chloro-2-methyl-benzoylamide; sodium salt]: the IC50 was in the range of 0.5 to 15 µM.
As for `Cc1cc(Cl)ccc1C(=O)NS(=O)(=O)/C=C/c1csc2ccccc12` [Example 4-18, (E)-2-Benzo[b]thiophen-3-yl-ethenesulfonic acid 4-chloro-2-methyl-benzoylamide; sodium salt], the half-maximal inhibitory concentration (IC50) was in the range of 0.5 to 15 µM.
With `COc1ccc(/C=C/S(=O)(=O)NC(=O)c2ccc(Cl)cc2Cl)cn1` [Example 2-4, (E)-2-(6-Methoxy-pyridin-3-yl)-ethenesulfonic acid 2,4-dichloro-benzoylamide; sodium salt], inhibition was half-maximal at 5.02 µM (IC50).
`O=C(NS(=O)(=O)/C=C/c1cccnc1)c1ccc(Cl)cc1Cl` [Example 2-1, (E)-2-Pyridin-3-yl-ethenesulfonic acid 2,4-dichloro-benzoylamide; sodium salt] registered a concentration for half-maximal inhibition (IC50) of 3.41 µM.
As for `Cc1cc(Cl)ccc1C(=O)NS(=O)(=O)/C=C/c1cccnc1` [Example 4-8, (E)-2-Pyridin-3-yl-ethenesulfonic acid 4-chloro-2-methyl-benzoylamide; sodium salt], the IC50 lay within 0.5 to 15 µM.
`O=C(NS(=O)(=O)/C=C/c1sccc1Br)c1ccc(Cl)cc1Cl` [Example 2-24, (E)-2-(3-Bromo-thiophen-2-yl)-ethenesulfonic acid 2,4-dichloro-benzoylamide; sodium salt] yielded an IC50 of 0.5 to 15 µM.
Take `O=C(NS(=O)(=O)/C=C/c1ccccn1)c1ccc(F)cc1Br` [Example 4-6, (E)-2-Pyridin-2-yl-ethenesulfonic acid 2-bromo-4-fluoro-benzoylamide; sodium salt]: the IC50 lay within 0.5 to 15 µM.
As for `Cc1ccc(C(=O)NS(=O)(=O)/C=C/c2ccncc2)c(C)c1` [Example 4-17, (E)-2-Pyridin-4-yl-ethenesulfonic acid 2,4-dimethyl-benzoylamide; sodium salt], the figure is 0.5 to 15 µM; as for `O=C(NS(=O)(=O)/C=C/c1ccsc1)c1ccc(C(F)(F)F)cc1C(F)(F)F` [Example 1-6, (E)-2-Thiophen-3-yl-ethenesulfonic acid 2,4-bis-trifluoromethyl-benzoylamide; sodium salt], 0.5 to 15 µM; as for `O=C(NS(=O)(=O)/C=C/c1ccccn1)c1ccc(Cl)cc1Cl` [Example 2-2, (E)-2-Pyridin-2-yl-ethenesulfonic acid 2,4-dichloro-benzoylamide; sodium salt], 0.5 to 15 µM.
Turning to `O=C(NS(=O)(=O)/C=C/c1csc2ccccc12)c1ccc(C(F)(F)F)cc1C(F)(F)F` [Example 2-29, (E)-2-Benzo[b]thiophen-3-yl-ethenesulfonic acid 2,4-ditrifluoromethyl-benzoylamide; sodium salt], the IC50 lay within 0.5 to 15 µM.
Regarding `O=C(NS(=O)(=O)/C=C/c1cccnc1)c1ccc(Br)cc1Cl` [Example 4-11, (E)-2-Pyridin-3-yl-ethenesulfonic acid 4-bromo-2-chloro-benzoylamide; sodium salt], the IC50 was in the range of 0.5 to 15 µM.
Take `Cc1csc(/C=C/S(=O)(=O)NC(=O)c2ccc(Cl)cc2Cl)c1` [Example 1-10, (E)-2-(4-Methyl-thiophen-2-yl)-ethenesulfonic acid 2,4-dichloro-benzoylamide]: the IC50 fell in the range of 0.5 to 15 µM.
`O=C(NS(=O)(=O)/C=C/c1csc2ccccc12)c1ccc(F)cc1C(F)(F)F` [Example 2-28, (E)-2-Benzo[b]thiophen-3-yl-ethenesulfonic acid 4-fluoro-2-trifluoromethyl-benzoylamide; sodium salt] showed an IC50 of 0.5 to 15 µM.
As to `Cc1cc(Cl)ccc1C(=O)NS(=O)(=O)/C=C/c1ccsc1` [Example 3-2, (E)-2-Thiophen-3-yl-ethenesulfonic acid 4-chloro-2-methyl-benzoylamide; sodium salt], the IC50 was 0.5 to 15 µM.
Then `O=C(NS(=O)(=O)/C=C/c1csc2ccccc12)c1ccc(F)cc1Cl` [Example 2-26, (E)-2-Benzo[b]thiophen-3-yl-ethenesulfonic acid 2-chloro-4-fluoro-benzoylamide; sodium salt], with 0.5 to 15 µM.
For `O=C(NS(=O)(=O)/C=C/c1ccccn1)c1ccc(Br)cc1Cl` [Example 4-7, (E)-2-Pyridin-2-yl-ethenesulfonic acid 4-bromo-2-chloro-benzoylamide; sodium salt], the half-maximal inhibitory concentration (IC50) lay within 0.5 to 15 µM.
